Measurements published in patent US5494932A, “Sulfonic stilbene derivatives in the treatment of viral disease” (Merrell Dow Pharmaceuticals Inc., priority 1991, dated 1996).
Where two headings read alike, the source gives them in different places.

How the values were obtained:
[1] = system: HIV-1; experiment: Back titration of cell-free supernatants (infectivity) on fresh uninfected JM cells; format: cell-based, HIV-1 (human T cell line JM)
Method: Protocol: JM cells were infected with HIV-1 to give a multiplicity of infection of 0.001. Virus adsorption was for 2 hours at room temperature. The cells were washed and distributed into wells containing different concentrations of test compounds and incubated. After 2 days the cells were observed and syncytia were counted. The cell-free supernatant fluids were harvested at 4 and 6 days post infection and assayed for levels of p24 viral core antigen and after 6 days the supernatants were also titrated to determine levels of infectivity.
*Syncytia-forming unit; cellfree supernatants from virus infected cells
having received the indicated concentration of compounds were incubated
with fresh uninfected JM cells and syncytia were scored to determine the
number of infectious units/ml.
supernatants from virusinfected control cells not having received drug

[2] = system: MT-4 cells; experiment: Cytotoxicity in MT-4 cells, tetrazolium reduction assay; format: cell-based, human
[3] = system: HIV-1 infected JM cells; experiment: Treatment of HIV-1 infected JM cells with DIDS, SITS and ddC; format: cell-based, HIV-1 (human T cell line JM)
Method: Protocol: JM cells were infected with HIV to give approximately 100 syncytia after 3 days. Virus adsorption was at room temperature for 2 hours. The cells were then washed thoroughly and distributed in wells of a tissue culture plate at a concentration of 1×10^5 cells/well. At 24 hours post infection either DIDS (100 μg/ml), SITS (100 μg/ml), or ddC (5 μM) were added to wells having infected cells. As virus controls, some wells had no drug added. At 42 hours post infection other wells received either ddC (5 μM), SITS (100 μg/ml), or DIDS (100, 50, 25, 12.5, 6.25 μg/ml). Syncytia were scored at 3 and 4 days post-infection and the supernatant fluids were harvested after 3 and 4 days for p24 core antigen determination.

[4] = system: virus-induced cell fusion (gp120-CD4 dependent); experiment: Anti-syncytial cocultivation assay: H9 cells chronically infected with HIV-1 RF mixed with uninfected C8166 cells; format: cell-based, HIV-1 RF; human H9 and C8166 cells
Text: Syncytial cell formation depends on the interaction of gp120, expressed in the membranes of infected cells, with the CD4 antigen on neighboring cells (Camerini and Seed, 1990). We utilized a cell cocultivation model to examine the effect of the stilbene disulfonic acids on the gp120-CD4 dependent fusion process. This system consists of mixing H9 cells chronically infected with HIV-1 RF (gp120^+ cells) with uninfected C8166 cells (CD4^+ cells) as the fusion indicator. In this assay, cell fusion occurred within 2 to 3 hours of mixing at 37° C. and substantial syncytia were observed after a further 3 to 4 hours (FIG. 1, Panel A). […] These findings with the sulfated polysaccharides were consistent with a previous report (Montefiori et al., 1990).
The effect of the stilbene disulfonic acids and various sulfated polysaccharides on virus-induced cell fusion. In this assay, 10^5 H9 cells, chronically infected with the HIV-1 strain RF, were cocultured with 10^5 uninfected C8166 cells in the absence and presence of the test compounds. FIG. 1A: Positive control, no compound addition; FIG. 1B: 100 μg/ml DIDS; FIG. 1C: 100 μg/ml SITS; FIG. 1D: positive control; FIG. 1E: 10 μg/ml 500,000 MW dextran sulfate; FIG. 1F: 250 μg/ml heparin.
CD4^+ uninfected C8166 cells were seeded into 24-well trays ([…]) that contained growth medium and various concentrations of test compounds. H9 cells, chronically infected with the RF strain of HIV-1, were washed and then added as a source of gp120^+ cells at 10^5 cells/well except for the noncytopathic control: those wells received uninfected H9 cells. The trays were then incubated at 37° C. and the cocultures were observed between 1 and 6 hours p.i. Syncytia were recorded on photographic film.
Protocol: H9 cells chronically infected with RF strain of HIV-1 and uninfected C8166 cells were mixed in the presence of either DIDS, SITS, H2 DIDS, dextran sulfate, or heparin (100 μg/ml). The cells were observed after 2, 31/2 and 51/2 hours and the amount of cell fusion quantified.
Protocol: H9 cells chronically inected with HIV-1 and uninfected C8166 cells were mixed in the presence of either DIDS, SITS, H2 DIDS, dextran sulfate, heparin (at 100 μg/ml), OKT4 or OKT4A (at a 1/50 dilution). The cells were observed after 4 hours and the amount of cell fusion quantitied. OKT4 and OKT4A are monoclonal antibodies that bined the CD4 cell surface antigen.

[5] = system: HCMV; experiment: Plaque reduction assay, HCMV; format: cell-based
Method: Protocol: Plaque reduction assay. Treatment after adsorption during incubation.

## O=S(=O)(O)c1cc(N=C=S)ccc1C=Cc1ccc(N=C=S)cc1S(=O)(=O)O [DIDS, 4,4'-diisothiocyanatostilbene-2,2'-disulfonic acid]
[1]; 12.5 μg/ml
  Back titration of cell-free supernatants at 6 days p.i.: 2.4 × 10^3 SFUs/ml
[1]; 50 μg/ml
  Back titration of cell-free supernatants at 6 days p.i.: < 10^1 SFUs/ml
[1]; 100 μg/ml
  Back titration of cell-free supernatants at 6 days p.i.: < 10^1 SFUs/ml
[1]; data not shown
  viral infectivity in the cell-free supernatants: absence of viral infectivity
[2]
  cytotoxicity at antiviral concentrations: noncytotoxic
[3]; 6 μg/ml, added 42 hr
  Mean syncytia/well 3 days p.i.: As VC
  Mean syncytia/well 4 days p.i.: As VC
  p24 antigen 3 days p.i.: 18000 pg/mL
  p24 antigen 4 days p.i.: 34000 pg/mL
[3]; 12 μg/ml, added 42 hr
  Mean syncytia/well 3 days p.i.: As VC
  Mean syncytia/well 4 days p.i.: As VC
  p24 antigen 3 days p.i.: 210000 pg/mL
  p24 antigen 4 days p.i.: 390000 pg/mL
[3]; 25 μg/ml, added 42 hr
  Mean syncytia/well 3 days p.i.: As VC
  Mean syncytia/well 4 days p.i.: As VC
  p24 antigen 3 days p.i.: 15000 pg/mL
  p24 antigen 4 days p.i.: 59000 pg/mL
[3]; 50 μg/ml, added 42 hr
  Mean syncytia/well 3 days p.i.: > 80
  Mean syncytia/well 4 days p.i.: 100
  p24 antigen 3 days p.i.: 19200 pg/mL
  p24 antigen 4 days p.i.: 63000 pg/mL
[3]; 100 μg/ml, added 24 hr
  Mean syncytia/well 3 days p.i.: 0
  Mean syncytia/well 4 days p.i.: 20
  p24 antigen 3 days p.i.: 6100 pg/mL
  p24 antigen 4 days p.i.: 15800 pg/mL
[3]; 100 μg/ml, added 42 hr
  Mean syncytia/well 3 days p.i.: 34
  Mean syncytia/well 4 days p.i.: 70
  p24 antigen 3 days p.i.: 19800 pg/mL
  p24 antigen 4 days p.i.: 20900 pg/mL
[3]; Human immunodeficiency virus 1, 72 h, 6 μg/ml, added 42 hr, read-out: p24 antigen 3 days p.i., % control
  activity at 6 µg/mL: 38%
[3]; Human immunodeficiency virus 1, 72 h, 12 μg/ml, added 42 hr, read-out: p24 antigen 3 days p.i., % control
  activity at 12 µg/mL: > 100%
[3]; Human immunodeficiency virus 1, 72 h, 25 μg/ml, added 42 hr, read-out: p24 antigen 3 days p.i., % control
  activity at 25 µg/mL: 32%
[3]; Human immunodeficiency virus 1, 72 h, 50 μg/ml, added 42 hr, read-out: p24 antigen 3 days p.i., % control
  activity at 50 µg/mL: 41%
[3]; Human immunodeficiency virus 1, 72 h, 100 μg/ml, added 24 hr, read-out: p24 antigen 3 days p.i., % control
  activity at 100 µg/mL: 13%
[3]; Human immunodeficiency virus 1, 72 h, 100 μg/ml, added 42 hr, read-out: p24 antigen 3 days p.i., % control
  activity at 100 µg/mL: 42%
[3]; Human immunodeficiency virus 1, 96 h, 6 μg/ml, added 42 hr, read-out: p24 antigen 4 days p.i., % control
  activity at 6 µg/mL: 38%
[3]; Human immunodeficiency virus 1, 96 h, 12 μg/ml, added 42 hr, read-out: p24 antigen 4 days p.i., % control
  activity at 12 µg/mL: 44%
[3]; Human immunodeficiency virus 1, 96 h, 25 μg/ml, added 42 hr, read-out: p24 antigen 4 days p.i., % control
  activity at 25 µg/mL: 66%
[3]; Human immunodeficiency virus 1, 96 h, 50 μg/ml, added 42 hr, read-out: p24 antigen 4 days p.i., % control
  activity at 50 µg/mL: 70%
[3]; Human immunodeficiency virus 1, 96 h, 100 μg/ml, added 24 hr, read-out: p24 antigen 4 days p.i., % control
  activity at 100 µg/mL: 18%
[3]; Human immunodeficiency virus 1, 96 h, 100 μg/ml, added 42 hr, read-out: p24 antigen 4 days p.i., % control
  activity at 100 µg/mL: 23%
[4]; 100 μg/ml, at the time of cell mixing
  cell fusion / syncytia: completely prevented cell fusion
[4]; 100 μg/ml, virus control ++
  Syncytia after 2 hrs: 0
[4]; 100 μg/ml, virus control +++
  Syncytia after 3 1/2 hrs: 0
  Syncytia after 5 1/2 hrs: 0
[4]; 200 μg/ml, 5 days post-mixing, not shown
  protection of C8166 cells: totally protected the C8166 cells
[4]; summary statement
  blocking virus-induced cell fusion and death: siginificant antiviral activity
[5]; 1 μg/ml, first count
  Plaque counts: 15
[5]; 1 μg/ml, second count
  Plaque counts: 14
[5]; 10 μg/ml, first count
  Plaque counts: 16
[5]; 10 μg/ml, second count
  Plaque counts: 12
[5]; 10 μg/ml, third count
  Plaque counts: 11
[5]; 100 μg/ml, first count
  Plaque counts: 3
[5]; 100 μg/ml, second count
  Plaque counts: 4
[5]; 100 μg/ml, third count
  Plaque counts: 3
[5]; 1000 μg/ml, first count
  Plaque counts: 0
[5]; 1000 μg/ml, second count
  Plaque counts: 0
[5]; 1000 μg/ml, third count
  Plaque counts: 0
[5]; Human betaherpesvirus 5, 1 μg/ml, read-out: Mean % VC (plaques)
  activity at 1 µg/mL: 49%
[5]; Human betaherpesvirus 5, 10 μg/ml, read-out: Mean % VC (plaques)
  activity at 10 µg/mL: 43%
[5]; Human betaherpesvirus 5, 100 μg/ml, read-out: Mean % VC (plaques)
  activity at 100 µg/mL: 10%
[5]; Human betaherpesvirus 5, 1000 μg/ml, read-out: Mean % VC (plaques)
  activity at 1000 µg/mL: 0%
